Experimental data as given in ChEMBL document CHEMBL4257529, “Antifungal amphiphilic kanamycins: new life for an old drug” (Medchemcomm, 2018).
Converted amounts (≈) assume the structure as drawn.

Tests used:
Format in all cases: functional
Candida albicans = experiment: Antifungal activity against Candida albicans 94-2181
Candida parapsilosis = experiment: Antifungal activity against sensitive Candida parapsilosis; settings: Lodderomyces parapsilosis
Aspergillus niger = experiment: Antifungal activity against Aspergillus niger
Fusarium graminearum [1] = experiment: Antifungal activity against Fusarium graminearum B4-5A strain A after 48 hrs by microdilution assay
Fusarium graminearum [2] = experiment: Synergistic antifungal activity against Fusarium graminearum B4-5A strain A assessed as fluconazole MIC after 48 hrs by microdilution assay
Fusarium graminearum [3] = experiment: Synergistic antifungal activity against Fusarium graminearum B4-5A strain A in presence of fluconazole after 48 hrs by microdilution assay
Fusarium graminearum [4] = experiment: Synergistic antifungal activity against Fusarium graminearum B4-5A strain C in presence of fluconazole after 48 hrs by checkerboard method
Fusarium graminearum [5] = experiment: Antifungal activity against Fusarium graminearum infected in wheat plant assessed as spikelet curling at 360 mg/L (reference value: 51.4%)
Fusarium graminearum [6] = experiment: Synergistic antifungal activity against Fusarium graminearum infected in wheat plant assessed as spikelet curling at 360 mg/L in presence of 4 ml/L pyraclostrobin (reference value: 51.4%)
Fusarium graminearum [7] = experiment: Synergistic antifungal activity against Fusarium graminearum infected in wheat plant assessed as fusarium head blight incidence at 360 mg/L in presence of 0.512 L/ha caramba (reference value: 70%)
Fusarium graminearum [8] = experiment: Antifungal activity against Fusarium graminearum infected in wheat plant assessed as fusarium head blight severity at 360 mg/L (reference value: 75%)
Fusarium graminearum [9] = experiment: Synergistic antifungal activity against Fusarium graminearum infected in wheat plant assessed as fusarium head blight severity at 360 mg/L in presence of 0.438 L/ha prosaro 421 SC (reference value: 75%)
Fusarium graminearum [10] = experiment: Synergistic antifungal activity against Fusarium graminearum infected in wheat plant assessed as fusarium head blight index at 360 mg/L in presence of 0.438 L/ha prosaro 421 SC (reference value: 53%)
Fusarium graminearum [11] = experiment: Antifungal activity against Fusarium graminearum infected in wheat plant assessed as contamination of wheat heads and kernels with deoxynivalenol at 360 mg/L (reference value: 1.2 ppm)

SMILES: CCCCCCCCS(=O)(=O)OC[C@H]1O[C@H](O[C@@H]2[C@@H](O)[C@H](O[C@H]3O[C@H](CN)[C@@H](O)[C@H](O)[C@H]3O)[C@@H](N)C[C@H]2N)[C@H](O)[C@@H](N)[C@@H]1O
- MIC (Candida albicans): > 7.8 µg/mL
- MIC (Candida parapsilosis): 15.6 µg/mL (≈ 23.6 µM)
- MIC (Aspergillus niger): > 150 µg/mL
- MIC (Fusarium graminearum [1]): 16 µg/mL (≈ 24.2 µM)
- MIC (Fusarium graminearum [2]): 25 µg/mL
- MIC (Fusarium graminearum [3]): 4 µg/mL
- fractional inhibitory concentration index (FICI) (Fusarium graminearum [4]): 0.37
- Activity (Fusarium graminearum [5]): 34.7%
- Activity (Fusarium graminearum [6]): 4.7%
- Activity (Fusarium graminearum [7]): 13%
- Activity (Fusarium graminearum [8]): 62%
- Activity (Fusarium graminearum [9]): 54%
- Activity_index (Fusarium graminearum [10]): 5%
- Activity (Fusarium graminearum [11]): 1.4 ppm
